Source: patent US5770573A, “CS-1 peptidomimetics, compositions and methods of using the same” (Cytel Corporation, priority 1995, dated 1998)
Square brackets hold non-standard residues; d marks the D form. Peptide text beside a SMILES is read from it. * marks the point of attachment. NHOctadecyl = CCCCCCCCCCCCCCCCCCN*; NMeF = CN[C@@H](Cc1ccccc1)C(=O)O; Cha = N[C@@H](CC1CCCCC1)C(=O)O; NMeD = CN[C@@H](CC(=O)O)C(=O)O; NMeL = CN[C@@H](CC(C)C)C(=O)O; X8 = CCCCCCCCCCCCCCCCCCO*; Morpholide = C1CN(*)CCO1; Nle = CCCC[C@H](N)C(=O)O; PhAc = O=C(Cc1ccccc1)*; X1 = CCCCCCCCCCCCCCO*; Inp = O=C(O)C1CCNCC1; X4 = CCN(CC)C(=O)CO*; Ahx = NCCCCCC(=O)O; Sar = CNCC(=O)O

Tests used:
asthmatic rabbits = assay: Treatment of asthmatic rabbits (house dust mite antigen challenge); type: in vivo, rabbit
Description: Six New Zealand white rabbits were immunized with house dust mite antigen from birth through four months of age. Upon immunization, three rabbits received a single nebulizer administration of the inhibitor compound, Compound ID No. 1051.01, N-phenylacetyl-Leu-Asp-Phe-morpholinamide in aqueous 50 percent ethanol as diluent in an amount of 100 mg/kg, and the other three received diluent alone. All of the rabbits were challenged with house dust mite antigen about 15-30 minutes after administration of the compound, with those animals not receiving compound serving as controls.
Once immunized and challenged, the inflammatory state subsides to a basal level within about three weeks. The three animals used as controls were thereafter used as subjects for receipt of an inhibitor compound, and the three rabbits that initially received the compound can serve as controls.
Such a crossover study was done here. Thus, the three initial control rabbits were treated with the above inhibitor compound in the above diluent at a time more than three weeks after the above study, and the three previous recipients of the compound were administered the diluent alone. All six were than challenged again.
Initial pulmonary function, measured by dynamic compliance (Cdyn) and lung resistance (RL) , and bronchoalveolar lavage (BAL) to obtain an effector cell count, here eosinophils, were conducted prior to administration of the compound or diluent for both portions of this crossover study. Similar assays were then taken one-half hourly after challenge for six hours (early phase allergic reaction) and at 24 hours after challenge (late stage allergic reaction) for both portions of this study.
These studies were conducted as described by W. J. Metzger in CRC Handbook of Late Phase Reactions, W. Dorsch, ed., Chapter 35, CRC Press, Boca Raton, Fla. (1990) pages 347-362.
The results of this study for the pulmonary function parameters are shown in FIG. 4A and FIG. 4B, in which data for the challenged, inhibitor compound-treated animals are shown as open circles and data for the challenged, untreated, control animals are shown in blackened circles.

VLA-4 = VLA-4 (Homo sapiens, UniProt P05556+P13612); assay: In vitro binding inhibition of 51Cr-labeled Jurkat cells to solid phase-bound CS-1 compound (SEQ ID NO:1); type: cell-based; design: inflammatory cells that contain the VLA-4 receptor [Jurkat cells; host or cells: Jurkat (human T lymphoblastic line); settings: for Relative Potency: binding inhibition potency relative to standard compound of SEQ ID NO:3 = 1 (normalized IC50), about one-tenth or less assigned zero; for Relative Potency (prodrug compound): relative to SEQ ID NO:3 = 1, potency before the prodrug compound is enzymatically converted to an active form; for VLA-4 binding inhibition compared in words: compared with standard 10-mer of SEQ ID NO:3
Outline: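 51Cr-labeled human Jurkat cells were preincubated with compound 30 min at about 22° C, then allowed to bind to wells coated with CS-1 peptide or CS-1-OVA for 30 min at 37° C. After washing, bound cells were lysed with SDS and counted. IC50 is the concentration halving binding, normalized to SEQ ID NO: 3.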

[1] = system: delayed-type hypersensitivity murine model; assay: Adoptive transfer delayed type hypersensitivity in mice (oxazolone); type: in vivo, mouse; settings: expanded study; versus vehicle alone; 6 mg/kg/day s.c. pump, 24 hours
Description: An adoptive transfer delayed-type hypersensitivity murine model has been developed using splenic T cells primed to oxazolone. This model is described in Elices et al., Clin. Exp. Rheum., 11 (Suppl. 8):577-580 (1993), whose procedures were followed here.
Thus, BALB/c mice were shaved on the belly and painted (50 μl on the belly and 5 μl on each paw) with three percent oxazolone in acetone/olive oil (4:1) at days zero and 1. At day 5, the mice were sacrificed, their spleens removed, and splenic T cells were obtained via nylon wool columns.
Normal saline or saline containing 25×10^6 /animal of the oxazolone-immune T cells were separately injected into naive mice. The mice were then challenged by painting 10 μl of 2 percent oxazolone onto one ear each. All procedures were carried out under sterile conditions and in endotoxin-free buffers.
Prior to challenge or saline injection, the mice were implanted with pumps that subcutaneously administered normal saline, normal saline containing the compound, Compound ID No. 896.52, N-phenylacetyl-Leu-Asp-Phe-D-Pro-NH2, or normal saline containing a compound with a scrambled sequence continually at 6 mg/kg/day for a 24-hour time period. The swelling diameter at the site of challenge or saline injection was measured with a microcaliper 24 hours thereafter.
An expanded study was carried out as described above except that a scrambled compound control was not used as a control for further inhibitor compounds of Table 1 with larger groups of mice. Statistical analyses were carried out versus injection of vehicle alone.

[2] = 100 mg/kg nebulizer, late (24 hours)

Sequence of VLA-4 (P13612 34-1032): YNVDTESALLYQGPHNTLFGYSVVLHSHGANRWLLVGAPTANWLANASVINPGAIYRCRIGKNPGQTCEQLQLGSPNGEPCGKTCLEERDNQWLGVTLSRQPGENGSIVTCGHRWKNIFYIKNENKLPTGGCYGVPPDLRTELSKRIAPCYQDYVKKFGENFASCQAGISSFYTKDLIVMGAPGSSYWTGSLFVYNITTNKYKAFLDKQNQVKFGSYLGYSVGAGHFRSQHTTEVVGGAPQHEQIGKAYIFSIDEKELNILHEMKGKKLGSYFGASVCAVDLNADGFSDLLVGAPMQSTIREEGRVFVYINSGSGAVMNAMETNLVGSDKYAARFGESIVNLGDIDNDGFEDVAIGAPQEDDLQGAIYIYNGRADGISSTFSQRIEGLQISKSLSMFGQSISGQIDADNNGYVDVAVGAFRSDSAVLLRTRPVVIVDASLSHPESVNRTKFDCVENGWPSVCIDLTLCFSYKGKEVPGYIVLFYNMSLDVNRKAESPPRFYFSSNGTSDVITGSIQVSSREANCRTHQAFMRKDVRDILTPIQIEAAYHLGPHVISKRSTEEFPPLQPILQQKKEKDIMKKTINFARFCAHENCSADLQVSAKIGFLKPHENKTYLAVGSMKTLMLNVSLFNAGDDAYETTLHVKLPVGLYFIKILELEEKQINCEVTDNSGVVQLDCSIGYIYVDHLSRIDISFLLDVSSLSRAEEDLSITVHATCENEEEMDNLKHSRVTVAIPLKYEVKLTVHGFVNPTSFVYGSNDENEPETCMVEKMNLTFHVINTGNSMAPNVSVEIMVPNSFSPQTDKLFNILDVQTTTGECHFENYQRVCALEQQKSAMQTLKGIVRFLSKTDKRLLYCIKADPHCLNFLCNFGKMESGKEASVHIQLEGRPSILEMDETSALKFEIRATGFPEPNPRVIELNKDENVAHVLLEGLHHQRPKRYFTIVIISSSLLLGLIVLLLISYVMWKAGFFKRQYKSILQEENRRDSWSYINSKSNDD
Sequence of VLA-4 (P05556 21-798): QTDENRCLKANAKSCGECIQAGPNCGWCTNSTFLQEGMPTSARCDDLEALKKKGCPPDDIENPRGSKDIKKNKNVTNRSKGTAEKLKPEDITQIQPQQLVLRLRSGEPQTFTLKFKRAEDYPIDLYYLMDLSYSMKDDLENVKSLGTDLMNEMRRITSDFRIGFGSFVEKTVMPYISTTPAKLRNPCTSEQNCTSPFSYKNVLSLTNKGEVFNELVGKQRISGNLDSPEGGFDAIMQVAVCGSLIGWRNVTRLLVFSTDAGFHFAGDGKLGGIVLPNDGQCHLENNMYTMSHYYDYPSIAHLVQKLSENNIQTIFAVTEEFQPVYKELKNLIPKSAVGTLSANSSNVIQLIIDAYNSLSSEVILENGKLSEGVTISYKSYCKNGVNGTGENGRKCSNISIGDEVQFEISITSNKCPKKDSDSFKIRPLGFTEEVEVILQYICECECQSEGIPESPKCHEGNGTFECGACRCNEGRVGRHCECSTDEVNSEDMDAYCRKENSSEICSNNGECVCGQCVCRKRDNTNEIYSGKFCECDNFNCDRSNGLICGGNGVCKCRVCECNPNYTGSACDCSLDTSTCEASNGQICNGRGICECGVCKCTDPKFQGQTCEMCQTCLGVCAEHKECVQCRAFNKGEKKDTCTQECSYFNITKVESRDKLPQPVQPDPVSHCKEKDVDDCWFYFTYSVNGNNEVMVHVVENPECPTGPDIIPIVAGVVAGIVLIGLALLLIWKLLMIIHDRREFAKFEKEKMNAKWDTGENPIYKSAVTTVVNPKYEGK

Structure (SMILES)	Relative Potency (VLA-4)	also measured
CC(C)C[C@H](NC(=O)Cc1ccccc1)C(=O)N[C@@H](CC(=O)O)C(=O)N[C@@H](Cc1ccccc1)C(=O)N1CCOCC1 [1051.01] (PhAc-Leu-Asp-Phe-Morpholide)	709	% Reduction, RL, Early phase (asthmatic rabbits; 100 mg/kg nebulizer, early (2-4 hours)): 80.1%; % Reduction, Cdyn, Early phase (asthmatic rabbits; 100 mg/kg nebulizer, early (2-4 hours), versus challenged controls): 94.4%; % Reduction, Cdyn, Late phase (asthmatic rabbits; [2]): 86.6%; % Reduction, RL, Late phase (asthmatic rabbits; [2]): 82.6%; reduction in eosinophils (BAL count) (asthmatic rabbits; after 24 hours, versus untreated, challenged animals): 88.1%; dynamic compliance Cdyn over six hours (FIG. 4A) (asthmatic rabbits; six hours after challenge): stayed at about the initial value; lung resistance RL over six hours (FIG. 4B) (asthmatic rabbits; six hours after challenge): remained between the initial value and about 200% of that value
CCCCCCCCCCCCCCOC(=O)C[C@H](NC(=O)[C@H](CC(C)C)NC(=O)Cc1ccccc1)C(=O)N[C@@H](Cc1ccccc1)C(=O)N1CCC[C@@H]1C(N)=O [1068.11] (PhAc-LD(X1)F[dP]-NH2)	–	Relative Potency (prodrug compound) (VLA-4): 0
CCCCCCCCCCCCCCCCCCOC(=O)C[C@H](NC(=O)[C@H](CC(C)C)NC(=O)Cc1ccccc1)C(=O)N[C@@H](Cc1ccccc1)C(=O)N1CCC[C@@H]1C(N)=O [1068.12] (PhAc-LD(X8)F[dP]-NH2)	–	Relative Potency (prodrug compound) (VLA-4): 0
CCN(CC)C(=O)COC(=O)C[C@H](NC(=O)[C@H](CC(C)C)NC(=O)Cc1ccccc1)C(=O)N[C@@H](Cc1ccccc1)C(=O)N1CCC[C@@H]1C(N)=O [1068.13] (PhAc-LD(X4)F[dP]-NH2)	–	Relative Potency (prodrug compound) (VLA-4): 0
CC(C)C[C@H](NC(=O)Cc1ccccc1)C(=O)N[C@@H](CC(=O)O)C(=O)N[C@@H](Cc1ccccc1)C(=O)N1C[C@@H](O)[C@@H](O)C1 [1070.01]	194	–
CC(C)C[C@H](NC(=O)Cc1ccccc1)C(=O)N[C@@H](CC(=O)O)C(=O)N[C@@H](Cc1ccccc1)C(=O)N1CCC(O)CC1 [1070.02]	604	Percent Inhibition of post-challenge swelling [1]: 29%
Cc1ccc(S(=O)(=O)N2CCN(C(=O)[C@H](Cc3ccccc3)NC(=O)[C@H](CC(=O)O)NC(=O)[C@H](CC(C)C)NC(=O)Cc3ccccc3)CC2)cc1 [1111.01]	363	–
CC(C)C[C@H](NC(=O)Cc1ccccc1)C(=O)N[C@@H](CC(=O)O)C(=O)N[C@@H](Cc1ccccc1)C(=O)N1CCSCC1 [1111.02]	450	–
CC(C)C[C@H](NC(=O)Cc1ccccc1)C(=O)N[C@@H](CC(=O)O)C(=O)N[C@@H](Cc1ccccc1)C(=O)N1CCS(=O)(=O)CC1 [1111.03]	1010	–
CC(C)C[C@H](NC(=O)Cc1ccccc1)C(=O)N[C@@H](CC(=O)O)C(=O)N[C@@H](Cc1ccccc1)C(=O)N1CCC(C(=O)O)CC1 [1111.04] (PhAc-LDF[Inp]-OH)	836	–
CC(C)C[C@H](NC(=O)Cc1ccccc1)C(=O)N[C@@H](CC(=O)O)C(=O)N[C@@H](Cc1ccccc1)C(=O)N1CCC(C(N)=O)CC1 [1111.05] (PhAc-LDF[Inp]-NH2)	942	–
CC(C)C[C@H](NC(=O)Cc1ccccc1)C(=O)N[C@@H](CC(=O)O)C(=O)N[C@@H](Cc1ccccc1)C(=O)N1CCN(CC(=O)O)CC1 [1111.06]	2600	Percent Inhibition of post-challenge swelling [1]: 30%
CC(C)C[C@H](NC(=O)Cc1ccccc1)C(=O)N[C@@H](CC(=O)O)C(=O)N[C@@H](Cc1ccccc1)C(=O)N1CCN(CCOCCO)CC1 [1111.07]	510	–
CC(C)C[C@H](NC(=O)Cc1ccccc1)C(=O)N[C@@H](CC(=O)O)C(=O)N[C@@H](Cc1ccccc1)C(=O)N1CC[N+](C)(C)CC1 [1111.08]	218	–
CC(C)C[C@H](NC(=O)Cc1ccccc1)C(=O)N[C@@H](CC(=O)O)C(=O)N[C@@H](Cc1ccccc1)C(=O)N1CCN(CC(N)=O)CC1 [1111.09]	324	–
CC(C)C[C@H](NC(=O)Cc1ccccc1)C(=O)N[C@@H](CC(=O)O)C(=O)N[C@@H](Cc1ccccc1)C(=O)NN1CCOCC1 [1111.10]	98.9	–
NC(=O)[C@H]1CCCN1C(=O)[C@H](Cc1ccccc1)NC(=O)[C@H](CC(=O)O)NC(=O)[C@H](CC1CCCCC1)NC(=O)Cc1ccccc1 [1160.01] (PhAc-[Cha]DF[dP]-NH2)	213	–
CCCC[C@H](NC(=O)Cc1ccccc1)C(=O)N[C@@H](CC(=O)O)C(=O)N[C@@H](Cc1ccccc1)C(=O)N1CCC[C@@H]1C(N)=O [1160.02] (PhAc-[Nle]DF[dP]-NH2)	49	–
CCOC(=O)C[C@H](NC(=O)[C@H](CC(C)C)NC(=O)Cc1ccccc1)C(=O)N[C@@H](Cc1ccccc1)C(=O)N1CCC[C@@H]1C(N)=O [1190.01] (PhAc-LD(OEt)F[dP]-NH2)	–	Relative Potency (prodrug compound) (VLA-4): 0
CC(C)C[C@H](NC(=O)Cc1ccccc1)C(=O)N[C@@H](CC(=O)O)C(=O)N[C@@H](Cc1ccccc1)C(=O)N1CCC(CC(=O)O)CC1 [1190.02]	591	–
CC(C)C[C@H](NC(=O)Cc1ccccc1)C(=O)N[C@@H](CC(=O)O)C(=O)N[C@@H](Cc1ccccc1)C(=O)N1CCN(CCC(=O)O)CC1 [1190.03]	998	–
CC(C)C[C@H](NC(=O)Cc1ccccc1)C(=O)N[C@@H](CC(=O)O)C(=O)N[C@@H](Cc1ccccc1)C(=O)N(C)CC(N)=O [1190.04] (PhAc-LDF[Sar]-NH2)	196	–
CC(C)C[C@H](NC(=O)Cc1ccccc1)C(=O)N[C@@H](CC(=O)O)C(=O)N(C)[C@@H](Cc1ccccc1)C(=O)N1CCC[C@@H]1C(N)=O [1190.05] (PhAc-LD[NMeF][dP]-NH2)	0	–
CC(C)C[C@H](NC(=O)Cc1ccccc1)C(=O)N(C)[C@@H](CC(=O)O)C(=O)N[C@@H](Cc1ccccc1)C(=O)N1CCC[C@@H]1C(N)=O [1190.06] (PhAc-L[NMeD]F[dP]-NH2)	0	–
CC(C)C[C@@H](C(=O)N[C@@H](CC(=O)O)C(=O)N[C@@H](Cc1ccccc1)C(=O)N1CCC[C@@H]1C(N)=O)N(C)C(=O)Cc1ccccc1 [1190.07] (PhAc-[NMeL]DF[dP]-NH2)	318	–
CCCCCCCCCCCCCCCCCCNC(=O)CCCCCNC(=O)[C@@H]1CCCN1C(=O)[C@H](Cc1ccccc1)NC(=O)[C@H](CC(=O)O)NC(=O)[C@H](CC(C)C)NC(=O)Cc1ccccc1 [Compound ID No. 1068.01, phenylacetyl-Leu-Asp-Phe-Pro-NH(CH2)5 C(O)NHC18 H37] (PhAc-LDFP[Ahx]-NHOctadecyl)	–	VLA-4 binding inhibition compared in words (VLA-4): binding inhibition similar to that exhibited by the standard 10-mer compound
CC(C)C[C@H](NC(=O)[C@@H](N)Cc1ccccc1)C(=O)N[C@@H](CC(=O)O)C(=O)N[C@@H](Cc1ccccc1)C(=O)N1CCC[C@@H]1C(N)=O [Compound ID No. 1092.01] (H-FLDF[dP]-NH2)	–	VLA-4 binding inhibition compared in words (VLA-4): binding inhibition better than that of the compound of SEQ ID NO:3
